What was measured:
Type in all cases: in vivo
Kochia (Kochia scoparia) [1] = assay: Test A preemergence; conditions: Bassia scoparia, pre-emergence, 240 h, preemergence, read-out: Kochia plant response rating; for pest or weed control at 125 g/ha: 125 g ai/ha, 0 to 100 scale where 0 is no effect and 100 is complete control; for pest or weed control at 500 g/ha: 500 g ai/ha, visual injury rating about 10 d after treatment, 0 to 100 scale (0 no effect, 100 complete control)
In short: (§1)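 Ratings of 0 (no effect) to 100 (complete control) come from visual comparison with untreated controls roughly 10 d after treatment. Test chemicals, formulated in a non-phytotoxic solvent mixture with surfactant, were applied either as a preemergence directed soil spray on seeded soil or postemergence to one- to two-leaf plants 2 to 10 cm tall.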

[2] = tested on: barnyardgrass (Echinochloa crus-galli); assay: Test A preemergence; conditions: Echinochloa crus-galli, pre-emergence, 240 h, preemergence, read-out: Barnyardgrass plant response rating; for pest or weed control at 125 g/ha: 125 g ai/ha, 0 to 100 scale where 0 is no effect and 100 is complete control; for pest or weed control at 500 g/ha: 500 g ai/ha, visual injury rating about 10 d after treatment, 0 to 100 scale (0 no effect, 100 complete control)
In short: as §1

[3] = tested on: giant foxtail (Setaria faberii); assay: Test A preemergence; conditions: Setaria faberi, pre-emergence, 240 h, preemergence, read-out: Foxtail, Giant plant response rating; for pest or weed control at 125 g/ha: 125 g ai/ha, 0 to 100 scale where 0 is no effect and 100 is complete control; for pest or weed control at 500 g/ha: 500 g ai/ha, visual injury rating about 10 d after treatment, 0 to 100 scale (0 no effect, 100 complete control)
In short: as §1

[4] = tested on: pigweed (Amaranthus retroflexus); assay: Test A preemergence; conditions: Amaranthus retroflexus, pre-emergence, 240 h, preemergence, read-out: Pigweed plant response rating; for pest or weed control at 125 g/ha: 125 g ai/ha, 0 to 100 scale where 0 is no effect and 100 is complete control; for pest or weed control at 500 g/ha: 500 g ai/ha, visual injury rating about 10 d after treatment, 0 to 100 scale (0 no effect, 100 complete control)
[5] = tested on: ragweed (common ragweed, Ambrosia elatior); assay: Test A preemergence; conditions: Ambrosia artemisiifolia, pre-emergence, 240 h, preemergence, read-out: Ragweed plant response rating; for pest or weed control at 125 g/ha: 125 g ai/ha, 0 to 100 scale where 0 is no effect and 100 is complete control; for pest or weed control at 500 g/ha: 500 g ai/ha, visual injury rating about 10 d after treatment, 0 to 100 scale (0 no effect, 100 complete control)
In short: as §1

[6] = tested on: ryegrass, Italian (Italian ryegrass, Lolium multiflorum); assay: Test A preemergence; conditions: Lolium multiflorum, pre-emergence, 240 h, preemergence, read-out: Ryegrass, Italian plant response rating; for pest or weed control at 125 g/ha: 125 g ai/ha, 0 to 100 scale where 0 is no effect and 100 is complete control; for pest or weed control at 500 g/ha: 500 g ai/ha, visual injury rating about 10 d after treatment, 0 to 100 scale (0 no effect, 100 complete control)
In short: as §1

Kochia (Kochia scoparia) [7] = assay: Test A postemergence; conditions: Bassia scoparia, post-emergence, 240 h, 125 g ai/ha, Postemergence; visual injury after approximately 10 d; 0 to 100 scale where 0 is no effect and 100 is complete control; read-out: Plant response rating, Kochia
In short: as §1

[8] = tested on: blackgrass (Alopecurus myosuroides); assay: Test A postemergence; conditions: Alopecurus myosuroides, post-emergence, 240 h, 125 g ai/ha, Postemergence; visual injury after approximately 10 d; 0 to 100 scale where 0 is no effect and 100 is complete control; read-out: Plant response rating, Blackgrass
In short: as §1

[9] = tested on: ragweed (common ragweed, Ambrosia elatior); assay: Test A postemergence; conditions: Ambrosia artemisiifolia, post-emergence, 240 h, 125 g ai/ha, Postemergence; visual injury after approximately 10 d; 0 to 100 scale where 0 is no effect and 100 is complete control; read-out: Plant response rating, Ragweed
In short: as §1

[10] = tested on: ryegrass, Italian (Italian ryegrass, Lolium multiflorum); assay: Test A postemergence; conditions: Lolium multiflorum, post-emergence, 240 h, 125 g ai/ha, Postemergence; visual injury after approximately 10 d; 0 to 100 scale where 0 is no effect and 100 is complete control; read-out: Plant response rating, Ryegrass, Italian
In short: as §1

[11] = tested on: wheat (Triticum aestivum); assay: Test A postemergence; conditions: Triticum aestivum, post-emergence, 240 h, 125 g ai/ha, Postemergence; visual injury after approximately 10 d; 0 to 100 scale where 0 is no effect and 100 is complete control; read-out: Plant response rating, Wheat
In short: as §1

[12] = tested on: barnyardgrass (Echinochloa crus-galli); assay: Test B flooded paddy test; conditions: Echinochloa crus-galli, Flood, 250 g ai/ha; scale of 0 to 100 where 0 is no effect and 100 is complete control; read-out: Barnyardgrass plant response rating
In short: (§2)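 Compound goes directly into floodwater once pots are flooded 3 cm above soil, targeting plants at two leaves; the water depth is then held for the test duration. Plants sit 13–15 d in a greenhouse and are rated visually, 100 denoting complete control.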

[13] = tested on: ducksalad (Heteranthera limosa); assay: Test B flooded paddy test; conditions: Heteranthera limosa, Flood, 250 g ai/ha; scale of 0 to 100 where 0 is no effect and 100 is complete control; read-out: Ducksalad plant response rating
In short: as §2

rice (Oryra sativa) = assay: Test B flooded paddy test; conditions: Oryza sativa, Flood, 250 g ai/ha; scale of 0 to 100 where 0 is no effect and 100 is complete control; read-out: Rice plant response rating
In short: as §2

[14] = tested on: sedge, umbrella (small-flower umbrella sedge, Cyperus difformis); assay: Test B flooded paddy test; conditions: Cyperus difformis, Flood, 250 g ai/ha; scale of 0 to 100 where 0 is no effect and 100 is complete control; read-out: Sedge, Umbrella plant response rating
In short: as §2

| SMILES | pest or weed control at 125 g/ha (Kochia (Kochia scoparia) [1]) | pest or weed control at 500 g/ha (Kochia (Kochia scoparia) [1]) | pest or weed control at 125 g/ha [2] | pest or weed control at 500 g/ha [2] | pest or weed control at 125 g/ha [3] | pest or weed control at 500 g/ha [3] | pest or weed control at 125 g/ha [4] | pest or weed control at 500 g/ha [4] | pest or weed control at 125 g/ha [5] | pest or weed control at 500 g/ha [5] | pest or weed control at 500 g/ha [6] | pest or weed control at 125 g/ha (Kochia (Kochia scoparia) [7]) | pest or weed control at 125 g/ha [8] | pest or weed control at 125 g/ha [9] | pest or weed control at 125 g/ha [10] | plant injury at 125 g/ha [11] | pest or weed control at 250 g/ha [12] | pest or weed control at 250 g/ha [13] | pest or weed control at 250 g/ha (rice (Oryra sativa)) | pest or weed control at 250 g/ha [14] | also measured |
| --- | --- | --- | --- | --- | --- | --- | --- | --- | --- | --- | --- | --- | --- | --- | --- | --- | --- | --- | --- | --- | --- |
| O=C(Nc1cccc(Cl)c1F)[C@H]1C(=O)N(C2CC2)CC[C@@H]1c1cccc(C(F)(F)F)c1 [Compound 926] | 0% | 0% | 30% | 90% | 80% | 90% | 0% | 0% | 0% | 0% | 0% | 0% | 0% | 0% | 0% | 0% | 0% | 0% | 0% | 0% | pest or weed control at 125 g/ha [6]: 0% |
| CS(=O)(=O)c1ccccc1NC(=O)[C@H]1C(=O)N(C2CC2)CC[C@@H]1c1cccc(C(F)(F)F)c1 [Compound 927] | 0% | 0% | 0% | 70% | 0% | 70% | 0% | 0% | 0% | 0% | 0% | 0% | 0% | 0% | 0% | 0% | 0% | 0% | 0% | 0% | pest or weed control at 125 g/ha [6]: 0% |
| CCc1ccccc1NC(=O)[C@H]1C(=O)N(C)C[C@@H]1c1ccc(C(F)(F)F)cc1 [Compound 935] | 70% | 80% | 70% | 90% | 90% | 90% | 20% | 20% |  | 30% | 50% | 30% | 60% | 0% | 20% | 30% | 0% | 70% | 0% | 0% |  |
| CN1C[C@H](c2ccc(C(F)(F)F)cc2)[C@@H](C(=O)Nc2cccc(F)c2Cl)C1=O [Compound 938] | 70% | 80% | 90% | 90% | 90% | 90% | 80% | 90% |  | 20% | 30% | 40% | 40% | 0% | 20% | 40% | 40% | 60% | 0% | 0% |  |

Reference: patent US12077503B2, “Substituted cyclic amides and their use as herbicides” (FMC CORPORATION, priority 2015, dated 2024)
